From US10017489B2, “Method for preparing benzopyran compound and application thereof in treating pulmonary fibrosis” (SHANGHAI JIAO TONG UNIVERSITY, priority 2013, dated 2018)
Read-outs that look alike come from different tables or passages of the source.

Tested on: Human lung fibroblasts, WI26 cell
Assay: Inhibitory effect on WI26 cells proliferation (CCK-8 assay)
Assay type: cell-based
Details: for inhibition at 15 µg/mL / inhibition at 30 µg/mL: Homo sapiens, Fibroblast, CCK-8; for toxicity to cell: based on dynamics of the inhibitory effect in FIG. 2; for inhibition at 30 µg/mL: read-out: inhibition rate, WI26 cells proliferation
Experimental: Cells: Human lung fibroblasts, WI26 cell;
Methods: wherein WI26 cells at 70-80% confluent were trysinized by 0.25% trypsin solution and seeded in 96-well plates at an initial density of 1×10^4 cells/mL. A medium was replaced 24 h later by the fresh with 15 μg/ml compound 1 and 1/1000 DMSO (drug treatment group 1 and its control) or 30 μg/ml compound 2 and 1/1000 DMSO (drug treatment group 2 and its control), then the medium was refreshed and cell viability was measured by using a CCK-8 method at day 0, 1, 2, 3, 4, 5, 6, respectively. Proliferation measurement was applied by adding 100 μL complete medium and 10 μL CCK-8 solutions to each well and incubating for 1 h. OD values of each well were measured at a primary wavelength λ=450 nm by using a Microplate Spectrophotometer. Data are shown as means±standard deviation (SD) of three independent experiments, each performed in triplicate.

| SMILES | inhibition at 15 µg/mL (15 μg/ml compound 1, day one) | inhibition at 15 µg/mL (15 μg/ml compound 1, day six) | toxicity to cell (normal human lung fibroblasts) | increase of inhibition compared with drug treatment group 2 (compound 2) (compound 1 at 15 μg/ml vs compound 2 at 30 μg/ml) | effective concentration to inhibit normal human lung fibroblasts proliferation and activation (normal human lung fibroblasts) | inhibition at 30 µg/mL (30 μg/ml compound 2, day one) | inhibition at 30 µg/mL (30 μg/ml compound 2, day six) |
| --- | --- | --- | --- | --- | --- | --- | --- |
| CC(C)=CCC[C@]1(C)Oc2ccc(C(N)=O)cc2C[C@@H]1O [compound 1, xiamenmycin C] | 13.8% | 38% | low toxicity | ~10% | 15 µg/mL |  |  |
| CC(C)=CCC[C@]1(C)Oc2ccc(C(=O)N[C@H](C(=O)O)[C@@H](C)O)cc2C[C@@H]1O [compound 2, Xiamenmycin, reference compound] |  |  | low toxicity |  |  | 10% | 28.5% |
